From ChEMBL document CHEMBL4433249, “New sensible method to quantize the intestinal absorption of receptor ligands” (Bioorg Med Chem, 2019)

Columns and labels:
[1] = (§1) Drug absorption in Wistar rat small intestinal serosal fluid assessed as displacement of [3H]HEMADO from recombinant human A3 receptor expressed in CHO cells at 10000 nM exposed to serosal fluid derived from 60 mins compound treated sac followed by further incubation for 3 hrs by scintillation counting based radioligand binding assay; assay type: cell-based; settings: 10 µM
[2] = Drug absorption in Wistar rat everted gut sac at 300 nM; assay type: ADME, tissue-based, Intestine; settings: 0.3 µM
[3] = Drug absorption in Wistar rat small intestinal serosal fluid at 10000 nM incubated for 60 mins by HPLC-DAD analysis; assay type: ADME; settings: 1 h, 10 µM
[4] = as §1, with “mucosal” for “serosal”, “1000” for “10000”; assay type: cell-based, Mucosa of small intestine; settings: 1 µM
[5] = as §1, with “mucosal” for “serosal”, “3000” for “10000”; assay type: cell-based, Mucosa of small intestine; settings: 3 µM
[6] = Drug absorption in Wistar rat small intestinal serosal fluid at 3000 nM incubated for 60 mins by HPLC-DAD analysis; assay type: ADME; settings: 1 h, 3 µM
[7] = as §1, with “3000” for “10000”; assay type: cell-based; settings: 3 µM
[8] = Drug absorption in Wistar rat everted gut sac at 1000 nM; assay type: ADME, tissue-based, Intestine; settings: 1 µM
[9] = as §1, with “300” for “10000”; assay type: cell-based; settings: 0.3 µM
[10] = Drug absorption in Wistar rat everted gut sac at 3000 nM; assay type: ADME, tissue-based, Intestine; settings: 3 µM
[11] = Apparent permeability of the compound across Wistar rat everted gut sac at 1000 nM; assay type: ADME, tissue-based, Intestine
[12] = Drug retention in Wistar rat everted gut sac at 3000 nM; assay type: ADME, tissue-based, Intestine; settings: 3 µM
[13] = Apparent permeability of the compound across Wistar rat everted gut sac at 300 nM; assay type: ADME, tissue-based, Intestine
[14] = as §1, with “mucosal” for “serosal”, “300” for “10000”; assay type: cell-based, Mucosa of small intestine; settings: 0.3 µM
[15] = Drug absorption in Wistar rat everted gut sac at 10000 nM; assay type: ADME, tissue-based, Intestine; settings: 10 µM
[16] = Apparent permeability of the compound across Wistar rat everted gut sac at 10000 nM; assay type: ADME, tissue-based, Intestine
[17] = as §1, with “1000” for “10000”; assay type: cell-based; settings: 1 µM
[18] = Drug retention in Wistar rat everted gut sac at 10000 nM; assay type: ADME, tissue-based, Intestine; settings: 10 µM
[19] = Drug retention in Wistar rat everted gut sac at 1000 nM; assay type: ADME, tissue-based, Intestine; settings: 1 µM
[20] = Apparent permeability of the compound across Wistar rat everted gut sac at 3000 nM; assay type: ADME, tissue-based, Intestine
[21] = as §1, with “mucosal” for “serosal”; assay type: cell-based, Mucosa of small intestine; settings: 10 µM
[22] = Drug retention in Wistar rat everted gut sac at 300 nM; assay type: ADME, tissue-based, Intestine; settings: 0.3 µM

Drug absorption [1]: 1180 nM | Drug absorption [2]: 12% | Drug absorption [3]: 2000 nM | Drug absorption [4]: 224 nM | Drug absorption [5]: 857 nM | Drug absorption [6]: 550 nM | Drug absorption [7]: 373 nM | Drug absorption [8]: 11.9% | Drug absorption [9]: 36 nM | Drug absorption [10]: 12.4% | Papp at 1 µM [11]: 8.4 ×10⁻⁶ cm/s | Drug uptake [12]: 59% | Papp at 0.3 µM [13]: 8.5 ×10⁻⁶ cm/s | Drug absorption [14]: 133 nM | Drug absorption [15]: 11.8% | Papp at 10 µM [16]: 8.4 ×10⁻⁶ cm/s | Drug absorption [17]: 119 nM | Drug uptake [18]: 67% | Drug uptake [19]: 65% | Papp at 3 µM [20]: 8.5 ×10⁻⁶ cm/s | Drug absorption [21]: 2088 nM | Drug uptake [22]: 44%
SMILES: CNC(=O)[C@H]1O[C@@H](n2cnc3c(NC)nc(C#Cc4ccccc4)nc32)[C@H](O)[C@@H]1O
